Reference: patent US11434205B2, “Substituted imidazole carboxylate derivatives and the use thereof” (priority 2018, dated 2022)
Like-named read-outs stand apart in the source and are kept apart here.

How the values were obtained:
[1] = system: rats; test: Loss of righting reflexes (LORR) assay in rats, ED50 by up and down method; type: in vivo, rat; conditions: tail vein, class symbols; for ED50: Rattus norvegicus
Summary of the method: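 Adult male Sprague-Dawley rats (250-300 g) dosed i.v. via tail vein at 0.1 mL/s. Anesthesia scored as loss of righting reflex lasting >30 s; ED50 derived by up-and-down method.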

[2] = system: rats
Description: Adult male Sprague-Dawley rats (250-300 g) were selected for the experiment. […] The anesthesia effects of the compounds were assessed in rats using a LORR assay and a period >30 s was considered as an indicator of general anesthesia. Then the up and down method was used to determine 50% effective dose (ED50). The drugs were administered through the tail vein of rats in a volume of 0.6 mL and at a rate of 0.1 mL/s.

[3] = system: rats; test: Pharmacological characteristics at equivalent doses (2×ED50) in rats; conditions: 2×ED50, tail vein; for Adverse reactions: Red urine (incidence): DMSO solution (DMSO alone 10/10); for Onset time: time of LORR; for Adverse reactions: Tremor (incidence): animals affected/animals
Summary of the method: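 Adult male Sprague-Dawley rats (250-300 g, n=8) received each drug at twice its ED50 via tail vein (0.6 mL at 0.1 mL/s). Onset of anesthesia taken as time to LORR.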

[4] = system: secretion of corticosterone, H295R cell line; test: cells; type: cell-based; conditions: for EC50: read-out: EC50 (Corticosterone)
Description: (§1) The Effects of the Compounds on Adrenocortical Function In Vitro Test
(§2) Then secretion of the cortisol and corticosterone in the supernatant, was measured using HPLC-MS/MS method to determine whether the compounds of the present invention had adrenotoxic potential.

[5] = system: secretion of cortisol, H295R cell line; test: cells; type: cell-based; conditions: for EC50: read-out: EC50 (Cortisol)
Description: as §1, §2

[6] = system: rats; type: in vivo, rat; conditions: rats of the MAP/HR figures, 2×ED50, tail vein; same value in min
Summary of the method: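 Rats implanted with telemetry (left ventricular and abdominal aortic catheters, ECG leads) at least one week before recording; compounds given via lateral tail-vein catheter. MAP and HR sampled every 15 s for 30 min before and after dosing to judge hemodynamic stability.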

[7] = system: rats; conditions: continuous tail vein infusion at 2×MIR, LORR maintained 1 hour
Description: Pharmacological Effects of the Compounds on Continuous Infusion in Rats
Adult male Sprague-Dawley rats with body weight ranging from 250 to 300 gm were selected for continuous infusion test. […] Time to recovery of righting reflex from stopping infusion, and time to fully awake from stopping infusion were recorded.

[8] = system: rats; type: in vivo, rat; conditions: rats of the MAP/HR figures, 2×ED50, tail vein
[9] = H295R cell line, 0.1-10000 nM, HPLC-MS/MS, Table D3
[10] = H295R cell line, 0.1-10000 nM, HPLC-MS/MS, Table E3

Row | Structure (SMILES) | ED50 [1] | Approximate therapeutic index [2] | Minimal lethal dose [2] | Righting reflex duration [3] | Adverse reactions: Red urine (incidence) [3] | Onset time [3] | Corticosterone as an indicator to determine the presence of inhibition [4, 9] | EC50 ([4]; Homo sapiens, NCI-H295R) | Cortisol as an indicator to determine the presence of inhibition [5, 9] | EC50 ([5]; Homo sapiens, NCI-H295R) | recovery time of the test animals' righting reflex [6] | Onset time ([7]; Table D4) | Recovery time after stopping infusion ([7]; Table D4) | recovery time of the test animals' righting reflex [8] | Types and incidence of adverse reactions ([7]; Table D4) | Corticosterone as an indicator to determine the presence of inhibition [4, 10] | Cortisol as an indicator to determine the presence of inhibition [5, 10] | Onset time ([7]; Table E4) | Recovery time after stopping infusion ([7]; Table E4) | Types and incidence of adverse reactions ([7]; Table E4) | other results
1 | CCC#CC(C)OC(=O)c1cncn1[C@H](C)c1ccccc1 (stereo partly shown) [Compound D36] | 0.1 to 0.5 mg/kg | >15 | >4 mg/kg | 2.63 ± 1.78 min | Red urine (8/8) | 0.31 ± 0.14 min | 0 | > 1 µM | 0 | > 1 µM | 2.38 min | 3 to 4 min | 12 to 17 min | 143 s |  |  |  |  |  |  | Adverse reactions: Hindlimb rigidity (incidence) [3]: Hindlimb rigidity (2/8),; Adverse reactions: Tongue stretching (incidence) [3]: Tongue stretching (4/8),
2 | C=CC#CC(C)(C)OC(=O)c1cncn1[C@H](C)c1ccccc1 [Compound D37] | 0.5 to 1 mg/kg | >13 | >10 mg/kg | 3.09 ± 2.03 min | Red urine (8/8) | 0.24 ± 0.11 min | 0 | > 1 µM | 0 | > 1 µM | 2.75 min | 2 to 3 min | 12 to 18 min | 165 s | Tremor (4/6) |  |  |  |  |  | 
3 | CC#CC1(OC(=O)c2cncn2[C@H](C)c2ccccc2)CCCCC1 [Compound D40] | 0.1 to 0.5 mg/kg | >16 | >4 mg/kg | 1.78 ± 1.94 min | Red urine (8/8) | 0.73 ± 0.43 min | 0 | > 1 µM | 0 | > 1 µM | 7.35 min | 2 to 3 min | 10 to 15 min | 441 s | Tremor (5/6) |  |  |  |  |  | Adverse reactions: Hindlimb rigidity (incidence) [3]: Hindlimb rigidity (1/8),
4 | C/C=C/C1(OC(=O)c2cncn2[C@H](C)c2ccccc2)COC1 [Compound D42] | 0.5 to 1 mg/kg | >12 | >9 mg/kg | 2.50 ± 1.18 min | Red urine (8/8) | 0.13 ± 0.02 min | 0 | > 1 µM | 0 | > 1 µM | 5.38 min | 3 to 4 min | 12 to 16 min | 323 s | Tremor (6/6) |  |  |  |  |  | 
5 | C=C=CC1(OC(=O)c2cncn2[C@H](C)c2ccccc2)CCCCC1 [Compound D43] | 0.01 to 0.1 mg/kg | >13 | >1 mg/kg | 1.45 ± 0.78 min | Red urine (8/8) | 0.22 ± 0.07 min | 0 | > 10 µM | 0 | > 10 µM | 1.95 min | 2 to 3 min | 11 to 14 min | 117 s | Tremor (4/6) |  |  |  |  |  | Adverse reactions: Hindlimb rigidity (incidence) [3]: Hindlimb rigidity (2/8),
6 | COCC1(COC(=O)c2c(F)ncn2[C@H](C)c2ccccc2)CCC1 [Compound E2] | 0.1 to 0.5 mg/kg | >25 | >5 mg/kg | 2.20 ± 1.11 min | (8/8) | 0.23 ± 0.07 min |  | > 10 µM |  | > 10 µM | 2.15 min |  |  | 129 s |  | 0 | 0 | 3 to 4 min | 11 to 13 min | Tremor (2/6) | 
7 | CC(=O)C(C)(C)OC(=O)c1c(F)ncn1[C@H](C)c1ccccc1 [Compound E6] | 0.5 to 1 mg/kg | >24 | >10 mg/kg | 2.73 ± 1.08 min | urine (8/8) | 0.13 ± 0.04 min |  | > 10 µM |  | > 10 µM | 2.90 min |  |  | 174 s |  | 0 | 0 | 2 to 3 min | 9 to 11 min | Tremor (4/6) | Adverse reactions: Tremor (incidence) [3]: (1/8), Red
8 | C[C@H](c1ccccc1)n1cnc(F)c1C(=O)OCC1CC1 [Compound E8] |  | >22 | >4 mg/kg | 1.90 ± 0.82 min | (8/8) | 0.38 ± 0.06 min |  |  |  |  | 2.00 min |  |  | 120 s |  | 0 | 0 | 3 to 4 min | 12 to 14 min | Tremor (1/6), Tongue stretching (4/6) | ED50 (mg/kg) [1]: B (B means that the measured ED50 is in the range of 0.10-0.50 mg/kg (excluding 0.10 mg/kg, including 0.50 mg/kg).); Sedation duration (mg/kg) [3]: 7.12 ± 0.81; EC50 [4, 10]: > 0.1 µM; EC50 [5, 10]: > 0.1 µM
9 | CC#CCOC(=O)c1c(F)ncn1[C@H](C)c1ccccc1 [Compound E35] | 0.1 to 0.5 mg/kg | >17 | >4 mg/kg | 2.30 ± 0.80 min | urine (8/8) | 0.32 ± 0.11 min |  | > 10 µM |  | > 10 µM | 2.52 min |  |  | 151 s |  | 0 | 0 | 2 to 3 min | 10 to 13 min | Tongue stretching (2/6), Tremor (3/6) | Adverse reactions: Tremor (incidence) [3]: (4/8), Red
10 | C=C=CC1(OC(=O)c2c(F)ncn2[C@H](C)c2ccccc2)COC1 [Compound E37] |  | >30 | >0.6 mg/kg | 1.75 ± 0.26 min | (8/8) | 0.25 ± 0.15 min |  |  |  |  | 1.67 min |  |  | 100 s |  | 0 | 0 | 2 to 3 min | 7 to 10 min | Tremor (2/6) | ED50 (mg/kg) [1]: A (A indicates that the measured ED50 is in the range of 0.01-0.10 mg/kg (including 0.01 and 0.10 mg/kg).); Sedation duration (mg/kg) [3]: 3.66 ± 1.12; EC50 [4, 10]: > 10 µM; EC50 [5, 10]: > 10 µM
